# From patent US20170007561A1, “CONTEMPORANEOUS, HETEROGENEOUSLY-ORIENTED, MULTI-TARGETED THERAPEUTIC MODIFICATION AND/OR MODULATION OF DISEASE BY ADMINISTRATION OF SULFUR-CONTAINING, AMINO ACID-SPECIFIC SMALL MOLECULES” (BioNumerik Pharmaceuticals, Inc., priority 2014, published 2017)
# Legend:
# T790M EGFR kinase = T790M EGFR kinase (Homo sapiens, UniProt P00533, T790M); assay: EGFR kinase assay (ADP-glo, polyGT substrate), T790M mutant; type: biochemical
# RNR subunit 1 = RNR subunit 1 (Homo sapiens, UniProt P23921); assay: Whole protein Mass Spectroscopy of RNR1; type: binding
# From the text: RNR1 contains a total of sixteen (16) cysteine residues and at least five (5) of these cysteine residues are required for catalysis, including: Cys218, Cys429, Cys444, Cys787, and Cys790. It is hypothesized that the Tavocept-derived mesna adducts identified on the RNR1 protein using whole protein Mass Spectroscopy (see, FIG. 49) may alter or modulate RNR activity.
# [1] = tested on: bovine brain microtubule protein (α-/β-tubulin); assay: Electron microscopy of microtubule polymerization reactions; type: biochemical; settings: presence and absence of paclitaxel
# Description: (1 mM/1 mM/6 μM (v/v/v)). Electron micrograph samples were prepared by gently mixing samples of reactions with an equal volume of 50% sucrose in buffer P (0.1 M PIPES, 1 mM EGTA, pH 6.5) and mounting on carbon-coated grids (400 mesh formvar/carbon, Electron Microscopy Sciences). Grids were washed with cytochrome c (1%) and water and stained with uranyl acetate (1%). Electron microscopy was performed using a Philips 208S electron microscope (Philips Instruments) at an accelerating voltage of 60 kV. Micrographs were taken at 36,000× and 7,000× magnifications.
# [2] = target: T1, Recombinant human peroxiredoxin 1 (Homo sapiens, UniProt Q06830); assay: LC-MS of trypsin or chymotrypsin digested Prx 1 after incubation with Tavocept; type: binding
# T1 construct: purchased SigmaAldrich
# T1 sequence (Q06830 1-199): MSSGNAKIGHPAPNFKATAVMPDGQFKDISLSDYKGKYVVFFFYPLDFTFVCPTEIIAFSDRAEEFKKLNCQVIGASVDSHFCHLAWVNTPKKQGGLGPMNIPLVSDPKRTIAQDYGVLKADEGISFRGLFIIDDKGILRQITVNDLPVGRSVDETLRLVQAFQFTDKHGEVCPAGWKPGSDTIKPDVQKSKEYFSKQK
# Description: Recombinant human peroxiredoxin 1 (purchased from SigmaAldrich; 333 μg; 0.015 micromoles) was reduced using an excess of dithiothreitol (DTT; 35 micromoles) in NH4HCO3 buffer (40 mM, pH 8.0) at 37° C. for 50 minutes (total reaction volume was 750 μL; final Prx concentration was 20 μM; and final DTT concentration was 46 mM). […] (total reaction volume was 500 μL). After 16-18 hours incubation, each reaction was removed and chromatographed using G25 Sephadex columns.
# In brief, the G25 chromatographed Prx1 incubation reactions were digested with Trypsin Gold. Trypsin Gold was dissolved in 400 μL of NH4HCO3 and 100 μL of acetonitrile. A 100-150 μL volume of this Trypsin Gold stock was then added to 500 μl of the aforementioned final sample with 75 μL of acetonitrile and then the reaction volume was adjusted to a total of 750 μL with NH4HCO3. The sample was incubated for 6 hours at 37° C. Chymotrypsin digests were by dissolving chymotrypsin in 1M HCL. A 50 μL volume of this chymotrypsin stock solution was added to added to 500 μl of the aforementioned final sample along with 10% (v/v) of CaCl2 (100 mM stock). NH4HCO3 buffer was then added to bring the total reaction volume to 750 μL. Chymotrypsin digests were incubated for 16 hours at 30° C. Following digest by either trypsin or chymotrypsin, reactions were lyophilized to dryness overnight and then resuspended in a minimal amount of HPLC grade water prior to LC MS analyses.
# A Symmetry C18 HPLC column (Waters, Franklin, Mass.; 3.5 μm; 4.6×75 mm) and a Waters Alliance liquid chromatography system (Waters 2695; Franklin, Mass.) coupled to a Micromass single quadropole mass detector (Micromass ZMD; Manchester, UK) were used to analyze fragments from trypsin or chymotrypsin digested human Prx1. The mobile phase contained 0.1% of formic acid throughout the run and the flow rate was 0.35 ml/min. […]
# bovine TrxR = target: T2, bovine TrxR (Bos taurus, UniProt O62768); assay: TrxR NADPH oxidation assay without Trx (Reaction A); type: biochemical
# T2 construct: purchased American Diagnostica
# T2 sequence (O62768 1-499): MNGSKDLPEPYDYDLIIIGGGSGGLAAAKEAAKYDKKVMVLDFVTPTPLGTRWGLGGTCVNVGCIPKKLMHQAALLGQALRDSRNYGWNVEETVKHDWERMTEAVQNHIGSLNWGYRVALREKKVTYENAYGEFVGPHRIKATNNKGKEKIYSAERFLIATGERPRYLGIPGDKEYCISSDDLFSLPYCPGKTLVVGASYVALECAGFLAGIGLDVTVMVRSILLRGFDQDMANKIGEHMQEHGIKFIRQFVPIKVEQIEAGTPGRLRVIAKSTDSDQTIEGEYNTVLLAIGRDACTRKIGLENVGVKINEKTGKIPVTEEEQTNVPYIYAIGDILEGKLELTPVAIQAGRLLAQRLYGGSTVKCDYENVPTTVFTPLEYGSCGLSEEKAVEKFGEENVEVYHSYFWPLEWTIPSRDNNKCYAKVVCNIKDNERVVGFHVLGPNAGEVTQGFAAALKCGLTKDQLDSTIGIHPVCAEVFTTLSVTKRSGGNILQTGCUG
# [3] = target: T3, Anaplastic Lymphoma Kinase (ALK) (Homo sapiens, UniProt Q9UM73); assay: ALK kinase activity (summary Table 27); type: biochemical
# T3 construct: illustrates the kinase domain of ALK (residues 1058-1623) which was used in these experiments; 6xHis (N); purchased Millipore lot 32944U-H (catalogue number not given); host or cells: baculovirus / Sf21
# T3 sequence (Q9UM73 1058-1620 limits assumed): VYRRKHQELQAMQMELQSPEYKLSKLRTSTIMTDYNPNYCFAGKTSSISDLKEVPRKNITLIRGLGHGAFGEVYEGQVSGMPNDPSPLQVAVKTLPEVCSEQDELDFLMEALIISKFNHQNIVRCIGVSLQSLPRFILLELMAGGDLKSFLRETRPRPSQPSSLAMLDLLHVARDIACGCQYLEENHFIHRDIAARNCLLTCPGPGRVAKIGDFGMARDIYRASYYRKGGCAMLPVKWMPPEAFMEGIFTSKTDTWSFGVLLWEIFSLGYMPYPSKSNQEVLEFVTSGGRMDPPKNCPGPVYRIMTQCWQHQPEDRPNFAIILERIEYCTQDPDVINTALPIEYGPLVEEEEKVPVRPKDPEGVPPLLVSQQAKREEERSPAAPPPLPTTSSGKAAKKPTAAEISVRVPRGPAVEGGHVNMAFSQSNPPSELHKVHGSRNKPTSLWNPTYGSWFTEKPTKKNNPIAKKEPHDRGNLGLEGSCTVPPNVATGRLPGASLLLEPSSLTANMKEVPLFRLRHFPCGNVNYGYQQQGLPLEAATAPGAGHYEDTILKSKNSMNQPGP
# T790M EGFR kinase, sequence (P00533 25-1210 T790M): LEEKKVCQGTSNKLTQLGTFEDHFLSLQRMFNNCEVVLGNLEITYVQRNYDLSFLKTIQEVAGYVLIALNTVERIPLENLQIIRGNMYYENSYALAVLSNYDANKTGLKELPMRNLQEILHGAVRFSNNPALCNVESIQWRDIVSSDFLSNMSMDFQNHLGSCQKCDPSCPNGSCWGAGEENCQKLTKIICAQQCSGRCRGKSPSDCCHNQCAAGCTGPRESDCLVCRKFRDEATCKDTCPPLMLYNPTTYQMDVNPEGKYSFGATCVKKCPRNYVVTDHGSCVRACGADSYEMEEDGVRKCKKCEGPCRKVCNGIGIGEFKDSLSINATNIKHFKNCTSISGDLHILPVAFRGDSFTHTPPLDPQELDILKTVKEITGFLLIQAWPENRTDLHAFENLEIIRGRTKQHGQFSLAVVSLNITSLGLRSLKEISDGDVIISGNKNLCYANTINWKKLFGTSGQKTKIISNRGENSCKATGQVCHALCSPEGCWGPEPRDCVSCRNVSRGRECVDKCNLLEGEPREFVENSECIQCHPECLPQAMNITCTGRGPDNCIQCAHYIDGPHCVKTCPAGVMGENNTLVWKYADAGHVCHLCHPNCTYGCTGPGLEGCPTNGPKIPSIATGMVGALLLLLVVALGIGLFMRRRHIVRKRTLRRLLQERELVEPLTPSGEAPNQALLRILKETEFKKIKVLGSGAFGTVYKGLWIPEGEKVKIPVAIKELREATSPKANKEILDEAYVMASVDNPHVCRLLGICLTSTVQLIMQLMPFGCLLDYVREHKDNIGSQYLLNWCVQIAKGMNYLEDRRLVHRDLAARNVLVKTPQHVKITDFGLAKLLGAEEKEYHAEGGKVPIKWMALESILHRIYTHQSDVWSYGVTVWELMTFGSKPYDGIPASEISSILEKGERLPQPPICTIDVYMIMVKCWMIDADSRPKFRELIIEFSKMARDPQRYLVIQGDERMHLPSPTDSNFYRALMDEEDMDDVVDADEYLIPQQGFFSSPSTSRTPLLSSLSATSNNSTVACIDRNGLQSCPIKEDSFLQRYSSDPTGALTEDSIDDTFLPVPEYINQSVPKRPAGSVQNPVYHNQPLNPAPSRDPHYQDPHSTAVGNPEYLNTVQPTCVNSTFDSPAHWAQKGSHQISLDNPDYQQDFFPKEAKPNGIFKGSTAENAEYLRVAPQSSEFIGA
# RNR subunit 1, sequence (P23921 whole entry): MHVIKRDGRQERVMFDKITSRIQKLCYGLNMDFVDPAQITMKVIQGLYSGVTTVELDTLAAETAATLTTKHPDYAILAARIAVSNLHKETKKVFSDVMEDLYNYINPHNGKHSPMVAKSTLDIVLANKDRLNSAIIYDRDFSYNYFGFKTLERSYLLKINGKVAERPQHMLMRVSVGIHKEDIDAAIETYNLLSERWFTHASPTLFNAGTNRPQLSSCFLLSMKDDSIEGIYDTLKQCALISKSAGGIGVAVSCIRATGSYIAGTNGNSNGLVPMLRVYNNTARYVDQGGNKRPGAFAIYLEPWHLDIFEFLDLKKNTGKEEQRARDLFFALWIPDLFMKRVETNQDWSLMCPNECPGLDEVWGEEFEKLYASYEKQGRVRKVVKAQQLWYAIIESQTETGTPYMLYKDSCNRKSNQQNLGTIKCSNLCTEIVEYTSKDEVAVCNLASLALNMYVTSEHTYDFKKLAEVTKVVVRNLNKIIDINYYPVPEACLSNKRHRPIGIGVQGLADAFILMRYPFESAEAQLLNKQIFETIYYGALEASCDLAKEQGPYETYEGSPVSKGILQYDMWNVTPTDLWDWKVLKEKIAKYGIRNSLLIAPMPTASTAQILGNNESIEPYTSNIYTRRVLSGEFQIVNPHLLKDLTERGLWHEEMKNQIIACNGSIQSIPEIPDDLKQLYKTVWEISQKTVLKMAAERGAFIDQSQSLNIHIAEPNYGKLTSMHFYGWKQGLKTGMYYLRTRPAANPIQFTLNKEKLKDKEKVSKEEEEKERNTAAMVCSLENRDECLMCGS
smiles,measurement,setting,value
"O=S(=O)([O-])CCSSCCS(=O)(=O)[O-].[Na+].[Na+] [Tavocept, disodium 2,2′-dithio-bis-ethane sulfonate]",inhibition of T790M EGFR kinase,"T790M EGFR kinase; 10 μM or 100 μM ATP, physiological concentrations (<20 mM) of Tavocept",did not notably inhibit
same,inhibitory activity on T790M EGFR kinase activity,"T790M EGFR kinase; Tavocept alone, 10 μM ATP",essentially no inhibitory activity
same,effect on Erlotinib inhibition of T790M EGFR kinase,"T790M EGFR kinase; Tavocept in combination with Erlotinib, 10 μM ATP",strongly potentiated
same,number of Tavocept-derived mesna adducts on cysteine residues within RNR1,RNR subunit 1,≤ 8
same,abundance of microtubules on EM grids,"[1]; Tavocept preincubated 20 minutes, qualitative",reduction in the abundance of microtubules
same,microtubule morphology,[1]; Tavocept,no effects on overall gross microtubule morphology
same,Tavocept-derived mesna Adduct detected?,[2]; chymotryptic fragment VCPTEIIAF (Cys 52),Yes
same,Tavocept-derived mesna Adduct detected?,[2]; chymotryptic fragment […] (Cys 173),Yes
same,Tavocept-derived mesna Adduct detected?,[2]; tryptic fragment […] (Cys 173),Yes
same,Reduction by TrxR alone,bovine TrxR; Reaction A,did not detectably reduce
same,"NADPH Oxidation, Reaction A","bovine TrxR; TrxR alone + NADPH, no Trx, disulfide 0.5 mM",0.3 ± 0.01 nmol/min/mL
same,Cellular consequence of BNP7787-modification and/or modulation: ALK,[3],BNP7787 disrupts/blocks ATP binding site resulting in inhibition
